Measured values from ChEMBL document CHEMBL1795324, “New class of acetylcholinesterase inhibitors from the stem bark of Knema laurina and their structural insights” (Bioorg Med Chem Lett, 2011).

Target: Acetylcholinesterase (Electrophorus electricus, UniProt O42275)
Sequence (O42275 whole entry): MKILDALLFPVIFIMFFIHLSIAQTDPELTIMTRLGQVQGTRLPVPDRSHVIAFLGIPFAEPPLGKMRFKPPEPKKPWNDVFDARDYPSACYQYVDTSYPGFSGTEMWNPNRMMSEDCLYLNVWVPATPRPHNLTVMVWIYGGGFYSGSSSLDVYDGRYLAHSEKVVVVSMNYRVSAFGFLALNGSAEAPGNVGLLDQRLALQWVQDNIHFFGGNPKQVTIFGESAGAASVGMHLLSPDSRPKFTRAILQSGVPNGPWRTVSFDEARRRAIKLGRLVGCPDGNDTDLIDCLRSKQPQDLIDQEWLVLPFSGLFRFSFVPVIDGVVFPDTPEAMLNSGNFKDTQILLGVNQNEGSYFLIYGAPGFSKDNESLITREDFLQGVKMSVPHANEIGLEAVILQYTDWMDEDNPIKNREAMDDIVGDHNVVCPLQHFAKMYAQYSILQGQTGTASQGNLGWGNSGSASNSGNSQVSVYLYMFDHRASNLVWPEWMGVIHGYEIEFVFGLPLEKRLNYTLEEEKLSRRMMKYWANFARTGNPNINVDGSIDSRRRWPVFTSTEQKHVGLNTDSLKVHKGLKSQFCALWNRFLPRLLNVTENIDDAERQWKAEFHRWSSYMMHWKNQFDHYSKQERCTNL
Description: Inhibition of electric eel acetylcholinesterase using acetylthiocholine iodide as substrate after 10 mins by Ellman's spectrophotometric method

Row | SMILES | IC50 [µM]
1 | CCCC/C=C\CCCCCCCCCc1cccc(O)c1 | 17.2
2 | CCCC/C=C\CCCCCCCCCc1cccc(OC)c1C(=O)OC | 358
3 | CCCCC[C@H](O)/C=C/CCCCCCCc1cccc(O)c1C(=O)O | 3.18
4 | CCCCCC/C=C\CCCCCCCCCc1cccc(OC)c1C(=O)OC | 303
5 | CCCCCC/C=C\CCCCCCCCCc1cccc(O)c1 | 13.1
6 | CCCC/C=C\CCCCCCCCCc1cccc(OC)c1 | 178
7 | CCCCC[C@H](O)/C=C/CCCCCCCc1cccc(OC)c1C(=O)OC | 342
